# Results reported in patent publication US20140031227A1, “HERBICIDAL COMPOSITIONS COMPRISING 4-AMINO-3-CHLORO-5-FLUORO-6-(4-CHLORO-2-FLUORO-3-METHOXYPHENYL) PYRIDINE-2-CARBOXYLIC ACID OR A DERIVATIVE THEREOF AND GLYPHOSATE OR GLUFOSINATE” (DOW AGROSCIENCES LLC, priority 2012, published 2014).
# Structures can show the parent of a compound that is named as a salt.
# Key:
# Assay type in all cases: in vivo
# [1] = system: ELEIN (Eleusine indica (L.) Gaertn., goosegrass); assay: Example III postemergence foliar-applied mixtures, row crop weeds (corn, soybean), greenhouse: ELEIN
# Procedure: (§1) Seeds or nutlets of the desired test plant species were planted in a soil matrix prepared by mixing a loam or sandy loam soil (e.g., 43 percent silt, 19 percent clay, and 38 percent sand, with a pH of about 8.1 and an organic matter content of about 1.5 percent) and calcareous grit in an 80 to 20 ratio. The soil matrix was contained in plastic pots with a surface area of 84.6 square centimters (cm^2) and a volume of 560 cubic centimeters (cm^3). […] The plants were grown for 7-31 days (d) in a greenhouse with an approximate 15 hour (h) photoperiod which was maintained at about 23-29° C. during the day and 22-28° C. during the night. Nutrients (Peters Excel® 15-5-15 5-Ca 2-Mg) and water were added on a regular basis and supplemental lighting was provided with overhead metal halide 1000-Watt lamps as necessary. The plants were employed for testing when they reached the first, second, or third true leaf stage.
# (§2) Treatments consisted of the acid or esters of 4-amino-3-chloro-5-fluoro-6-(4-chloro-2-fluoro-3-methoxy-phenyl)pyridine-2-carboxylic acid (Compound A), each formulated as an
# (§3) SC (suspension concentrate), and various herbicidal components alone and in combination. Forms of compound A were applied on an acid equivalent basis.
# (§4) Other herbicidal components were applied on an acid equivalent or active ingredient basis and included the 5-enolpyruvylshikimate-3-phosphate synthase (EPSPS)-inhibiting herbicide, glyphosate dimethylamine salt, formulated as Durango DMA® and the glutamine synthase (GS)-inhibiting herbicide, glufosinate ammonium, formulated as Ignite® 280.
# (§5) For treatments comprised of formulated compounds, measured amounts of compounds were placed individually in 25 mL glass vials and diluted in a volume of 1.5% (v/v) Agri-dex® crop oil concentrate to obtain 6× stock solutions. […] Application solutions were prepared by adding an appropriate amount of each stock solution (typically 2 mL) and diluted to the appropriate final concentrations with the addition of an aqueous mixture of 1.5% (v/v) crop oil concentrate and water so that the final spray solutions contained 1.25% (v/v) crop oil concentrate.
# (§6) All stock solutions and applications solutions were visually inspected for compound compatibility prior to application. Compound requirements are based upon a 12 mL application volume at a rate of 187 liters per hectare (L/ha). Formulated compounds were applied to the plant material with an overhead Mandel track sprayer equipped with 8002E nozzles calibrated to deliver 187 L/ha over an application area of 0.503 square meters (m^2) at a spray height of 18 to 20 inches (46 to 50 cm) above the average plant canopy height. Control plants were sprayed in the same manner with the solvent blank.
# (§7) The treated plants and control plants were placed in a greenhouse as described above and watered by sub-irrigation to prevent wash-off of the test compounds. After approximately 2 weeks, the condition of the test plants as compared with that of the untreated plants was determined visually and scored on a scale of 0 to 100 percent where 0 corresponds to no injury or growth inhibition and 100 corresponds to complete kill.
# (§8) The following equation was used to calculate the expected activity of mixtures containing two active ingredients, A and B: […]
# [2] = system: AVEFA (Avena fatua L., wild oat); assay: Example III postemergence foliar-applied mixtures, row crop weeds (corn, soybean), greenhouse: AVEFA
# Procedure: as §1, §2, §3, §4, §5, §6, §7, §8
# [3] = system: CIRAR (Cirsium arvense (L.) Scop., Canada thistle); assay: Example IV postemergence foliar-applied mixtures, general weed control, greenhouse: CIRAR (Table 17, species inferred from b27)
# Procedure: as §1, with “Sun Gro Metro-Mix® 360 planting mixture, which typically has” for “a soil matrix prepared by mixing a loam or sandy loam soil (e.g., 43 percent silt, 19 percent clay, and 38 percent sand, with”, “6.0 to 6.8” for “about 8.1”, “30 percent,” for “1.5 percent) and calcareous grit in an 80 to 20 ratio. The soil matrix was contained”, “square” for “square centimters (cm^2) and a volume of 560 cubic”, “(cm^2).” for “(cm^3).”
# (§9) Treatments consisted of the acid or the benzyl ester of 4-amino-3-chloro-5-fluoro-6-(4-chloro-2-fluoro-3-methoxy-phenyl)pyridine-2-carboxylic acid (Compound A), each formulated as an SC, and various herbicidal components alone and in combination. Forms of compound A were applied on an acid equivalent basis.
# as §4
# (§10) For treatments comprised of formulated compounds, measured amounts of compounds were placed individually in 25 mL glass vials and diluted in a volume of 1.25% (v/v) Agri-dex crop oil concentrated to obtain 12× stock solutions. […] Application solutions were prepared by adding an appropriate amount of each stock solution (typically 1 mL) and diluted to the appropriate final concentrations with the addition of 10 mL of an aqueous mixture of 1.25% (v/v) Agri-dex crop oil concentrate so that the final spray solutions contained 1.25% (v/v) Agri-dex crop oil concentrate.
# as §6
# as §7, with “3” for “2”
# (§11) Colby's equation was used to determine the herbicidal effects expected from the mixtures (Colby, S. R. 1967. Calculation of the synergistic and antagonistic response of herbicide combinations. Weeds 15:20-22.) .
# [4] = system: CHEAL (Chenopodium album L., common lambsquarters); assay: Example IV postemergence foliar-applied mixtures, general weed control, greenhouse: CHEAL
# Procedure: as §1, with “Sun Gro Metro-Mix® 360 planting mixture, which typically has” for “a soil matrix prepared by mixing a loam or sandy loam soil (e.g., 43 percent silt, 19 percent clay, and 38 percent sand, with”, “6.0 to 6.8” for “about 8.1”, “30 percent,” for “1.5 percent) and calcareous grit in an 80 to 20 ratio. The soil matrix was contained”, “square” for “square centimters (cm^2) and a volume of 560 cubic”, “(cm^2).” for “(cm^3).”
# as §9, §4, §10, §6
# as §7, with “3” for “2”
# as §11
# [5] = system: ECHCG (Echinochloa crusgalli (L.) Beauv., barnyardgrass); assay: Example IV postemergence foliar-applied mixtures, general weed control, greenhouse: ECHCG
# Procedure: as §7, with “3” for “2”
# as §11
# The following equation was used to calculate the expected activity of mixtures containing two active ingredients, A and B:
# A=observed efficacy of active ingredient A at the same concentration as used in the mixture.
# B=observed efficacy of active ingredient B at the same concentration as used in the mixture.
# [6] = system: SETFA (Setaria faberi Herrm., giant foxtail); assay: Example IV postemergence foliar-applied mixtures, general weed control, greenhouse: SETFA
# Procedure: as §1, with “Sun Gro Metro-Mix® 360 planting mixture, which typically has” for “a soil matrix prepared by mixing a loam or sandy loam soil (e.g., 43 percent silt, 19 percent clay, and 38 percent sand, with”, “6.0 to 6.8” for “about 8.1”, “30 percent,” for “1.5 percent) and calcareous grit in an 80 to 20 ratio. The soil matrix was contained”, “square” for “square centimters (cm^2) and a volume of 560 cubic”, “(cm^2).” for “(cm^3).”
# as §9, §4, §10, §6
# as §7, with “3” for “2”
# as §11
# [7] = system: AMARE (Amaranthus retroflexus L., redroot pigweed); assay: Example IV postemergence foliar-applied mixtures, general weed control, greenhouse: AMARE (Table 17, species inferred from b27)
# Procedure: as §1, with “Sun Gro Metro-Mix® 360 planting mixture, which typically has” for “a soil matrix prepared by mixing a loam or sandy loam soil (e.g., 43 percent silt, 19 percent clay, and 38 percent sand, with”, “6.0 to 6.8” for “about 8.1”, “30 percent,” for “1.5 percent) and calcareous grit in an 80 to 20 ratio. The soil matrix was contained”, “square” for “square centimters (cm^2) and a volume of 560 cubic”, “(cm^2).” for “(cm^3).”
# as §9, §4, §10, §6
# as §7, with “3” for “2”
# as §11
# [8] = Compound A Acid alone, 7.5 gae/ha
# [9] = Compound A Acid alone, 15 gae/ha
# [10] = Compound A Benzyl Ester 2 gae/ha alone
# [11] = Compound A Benzyl Ester 4 gae/ha alone
# [12] = Compound A Benzyl Ester 8 gae/ha alone
# [13] = Compound A Benzyl Ester 16 gae/ha alone
# [14] = Compound A Benzyl Ester 32 gae/ha alone
# [15] = Compound A Benzyl Ester 2 gae/ha alone, 18 DAA
# [16] = Compound A Benzyl Ester 4 gae/ha alone, 18 DAA
# [17] = Compound A Benzyl Ester 8 gae/ha alone, 18 DAA
# [18] = Compound A Benzyl Ester alone, 2 gae/ha
# [19] = Compound A Benzyl Ester alone, 4 gae/ha
# [20] = Glufosinate ammonium salt 225 gai/ha alone
# [21] = Glufosinate ammonium salt 450 gai/ha alone, 18 DAA
# [22] = glufosinate ammonium alone, 28.25 gae/ha
# [23] = glufosinate ammonium alone, 56.5 gae/ha
compound,measurement,setting,value
"COc1c(Cl)ccc(-c2nc(C(=O)O)c(Cl)c(N)c2F)c1F [Compound A Acid, 4-amino-3-chloro-6-(4-chloro-2-fluoro-3-methoxyphenyl)-5-fluoropyridine-2-carboxylic acid]",Visual Weed Control (%) - 16 DAA ELEIN Obs,[1]; [8],10%
same,Visual Weed Control (%) - 16 DAA ELEIN Obs,[1]; [9],10%
same,Visual Weed Control (%) - 16 DAA AVEFA Obs,"[2]; Compound A Acid alone, 3.75 gae/ha",0%
same,Visual Weed Control (%) - 16 DAA AVEFA Obs,[2]; [8],0%
same,Visual Weed Control (%) - 16 DAA AVEFA Obs,[2]; [9],10%
COc1c(Cl)ccc(-c2nc(C(=O)OCc3ccccc3)c(Cl)c(N)c2F)c1F [Compound A Benzyl Ester],Visual Weed Control (%) - 18 DAA CIRAR Obs,[3]; [10],60%
same,Visual Weed Control (%) - 18 DAA CIRAR Obs,[3]; [11],70%
same,Visual Weed Control (%) - 18 DAA CIRAR Obs,[3]; [12],80%
same,Visual Weed Control (%) - 18 DAA CIRAR Obs,[3]; [13],85%
same,Visual Weed Control (%) - 18 DAA CIRAR Obs,[3]; [14],90%
same,Visual Weed Control (%) - 18 DAA CHEAL Obs,[4]; [15],50%
same,Visual Weed Control (%) - 18 DAA CHEAL Obs,[4]; [16],70%
same,Visual Weed Control (%) - 18 DAA CHEAL Obs,[4]; [17],90%
same,Visual Weed Control (%) - 18 DAA CHEAL Obs,[4]; [18],50%
same,Visual Weed Control (%) - 18 DAA CHEAL Obs,[4]; [19],70%
same,Visual Weed Control (%) - 18 DAA CHEAL Obs,"[4]; Compound A Benzyl Ester alone, 8 gae/ha",90%
same,Visual Weed Control (%) - 18 DAA CHEAL Obs,"[4]; Compound A Benzyl Ester alone, 16 gae/ha",95%
same,Visual Weed Control (%) - 18 DAA CHEAL Obs,"[4]; Compound A Benzyl Ester alone, 32 gae/ha",99%
same,Visual Weed Control (%) - 18 DAA ECHCG Obs,[5]; [12],40%
same,VisualWeed Control (%) - 18 DAA SETFA Obs,[6]; [15],40%
same,VisualWeed Control (%) - 18 DAA SETFA Obs,[6]; [16],40%
same,VisualWeed Control (%) - 18 DAA SETFA Obs,[6]; [17],75%
same,VisualWeed Control (%) - 18 DAA SETFA Obs,"[6]; Compound A Benzyl Ester 16 gae/ha alone, 18 DAA",85%
same,VisualWeed Control (%) - 18 DAA SETFA Obs,"[6]; Compound A Benzyl Ester 32 gae/ha alone, 18 DAA",90%
same,VisualWeed Control (%) - 18 DAA SETFA Obs,[6]; [18],40%
same,VisualWeed Control (%) - 18 DAA SETFA Obs,[6]; [19],40%
same,Visual Weed Control (%) - 18 DAA AMARE Obs,[7]; [10],50%
same,Visual Weed Control (%) - 18 DAA AMARE Obs,[7]; [11],60%
same,Visual Weed Control (%) - 18 DAA AMARE Obs,[7]; [12],85%
same,Visual Weed Control (%) - 18 DAA AMARE Obs,[7]; [13],85%
same,Visual Weed Control (%) - 18 DAA AMARE Obs,[7]; [14],100%
"CP(=O)(O)CCC(N)C(=O)O (stereo not drawn) [Glufosinate ammonium salt, 2-amino-4-(hydroxymethylphosphinyl)butanoic acid monoammonium salt, reference compound]",Visual Weed Control (%) - 18 DAA CIRAR Obs,[3]; [20],15%
same,Visual Weed Control (%) - 18 DAA CHEAL Obs,"[4]; Glufosinate ammonium salt 112.5 gai/ha alone, 18 DAA",0%
same,Visual Weed Control (%) - 18 DAA CHEAL Obs,"[4]; Glufosinate ammonium salt 225 gai/ha alone, 18 DAA",10%
same,Visual Weed Control (%) - 18 DAA CHEAL Obs,[4]; [21],30%
same,Visual Weed Control (%) - 18 DAA ECHCG Obs,[5]; Glufosinate ammonium salt 112.5 gai/ha alone,0%
same,Visual Weed Control (%) - 18 DAA ECHCG Obs,[5]; [20],0%
same,Visual Weed Control (%) - 18 DAA ECHCG Obs,[5]; Glufosinate ammonium salt 450 gai/ha alone,10%
same,Visual Weed Control (%) - 16 DAA ELEIN Obs,[1]; [22],0%
same,Visual Weed Control (%) - 16 DAA ELEIN Obs,[1]; [23],0%
same,Visual Weed Control (%) - 16 DAA ELEIN Obs,"[1]; glufosinate ammonium alone, 113 gae/ha",10%
same,Visual Weed Control (%) - 16 DAA AVEFA Obs,[2]; [22],0%
same,Visual Weed Control (%) - 16 DAA AVEFA Obs,[2]; [23],0%
same,VisualWeed Control (%) - 18 DAA SETFA Obs,[6]; [21],60%
same,Visual Weed Control (%) - 18 DAA AMARE Obs,[7]; [20],50%
